Laboratory results taken from paper PMC9853869, “The Myxobacterial Antibiotic Myxovalargin: Biosynthesis, Structural Revision, Total Synthesis, and Molecular Characterization of Ribosomal Inhibition” (Journal of the American Chemical Society, 2023).
*1 amine or outer side, *2 acyl side, *3 side chain or, on linkers, in order; H or OH if unused. Where a SMILES comes first, the peptide text is derived from it. [ ]: non-standard residue; d: D form. The star is where a group is joined. X1 = O=C(C[C@H](N[*:1])c1ccc(O)cc1)[*:2]; dVal(3-OH) = CC(C)(O)[C@@H](N)C(=O)O; ΔIle(E) = CC/C(C)=C(/N)C(=O)O; Isovaleryl = CC(C)CC(=O)*; Agmatine = N=C(N)NCCCCN*; NMeA = CN[C@@H](C)C(=O)O; ΔVal = CC(C)=C(N)C(=O)O

Experiments:
[1] = tested on: M. tuberculosis; assay type: cell-based, Mycobacterium tuberculosis
[2] = tested on: M. tuberculosis MXV-SRM69 (rrl: t2847c, rrl: t2849g, Rv2935/ppsE: G146*); details: MXV-SRM69 (rrl: t2847c, rrl: t2849g, Rv2935/ppsE: G146*, 4 h)

`CC/C(C)=C(/NC(=O)[C@H](NC(=O)[C@@H](NC(=O)[C@@H](CCCNC(=N)N)NC(=O)C(NC(=O)[C@H](NC(=O)C[C@H](NC(=O)[C@H](NC(=O)[C@H](NC(=O)[C@H](C)N(C)C(=O)[C@H](C)NC(=O)C(NC(=O)CC(C)C)=C(C)C)C(C)C)C(C)C)c1ccc(O)cc1)C(C)C)=C(C)C)C(C)C)C(C)C)C(=O)N[C@H](C)C(=O)N[C@@H](C(=O)NCCCCNC(=N)N)C(C)(C)O` [MyxA, Myxovalargin A] (Isovaleryl-[ΔVal]A[NMeA][dV][dV][X1][dV][ΔVal][dR]V[dV][ΔIle(E)][dA][dVal(3-OH)]-Agmatine) was tested, and the “MIC shift of resistant mutant strains” value [1] was over 40 fold, the “frequency of spontaneous resistance mutants” value [1] was ~6 × 10^–7 and the MIC [2] was over 210 µg/mL.
